ChEMBL document CHEMBL5365504, “Psychoplastogens: A Novel Therapeutic Approach for Neurological Diseases and Disorders” (ACS Med Chem Lett, 2023)

Assays:
Type in all cases: functional, cell-based
Conditions in all cases: 72 h
[1] = test system: Cortical neurone; experiment: Induction of neurite outgrowth in Wistar rat Cortical neuron cells assessed as increase in number of branch points incubated for 3 days by DAPI staining based high-content screening method
[2] = test system: Cortical neurone; experiment: Induction of neurite outgrowth in Wistar rat Cortical neuron cells assessed as increase in neurite length incubated for 3 days by DAPI staining based high-content screening method
[3] = test system: Cortical neurone; experiment: Induction of neurite outgrowth in Wistar rat Cortical neuron cells assessed as increase in neurite number incubated for 3 days by DAPI staining based high-content screening method

| SMILES | EC50 [1] [nM] | EC50 [2] [nM] | EC50 [3] [nM] |
| --- | --- | --- | --- |
| C[C@H](Cn1ccc2nc(OCc3ccccc3)ccc21)N(C)C | < 10 | < 10 | < 10 |
| C[C@H](Cn1ccc2cc(OCc3ccccc3)ccc21)N1CCCC1 | 10 | < 10 | < 10 |
| C[C@@H](N)Cn1ccc2cc(OCc3cccc(F)c3)ccc21 | < 10 | < 10 | 10 |
| C[C@@H](N)Cn1ccc2cc(OCc3ccc(F)cc3)ccc21 | 10 | 10 | 10 |
| C[C@H](Cn1ccc2cc(OCc3ccccc3)ccc21)N(C)C | 10 | < 10 | 10 |
| C[C@H](Cn1ccc2cc(OCc3cccc(F)c3)ccc21)N(C)C | < 10 | < 10 | < 10 |
| C[C@H](Cn1ccc2cc(OCc3ccccc3F)ccc21)N(C)C | < 10 | < 10 | < 10 |
| CCN(CC)[C@H](C)Cn1ccc2cc(OCc3ccccc3)ccc21 | < 10 | < 10 | < 10 |
| C[C@H](Cn1ccc2cc(OCc3ccc(F)cc3)ccc21)N(C)C | < 10 | < 10 | < 10 |
| C[C@@H](N)Cn1ccc2cc(OCc3ccccc3F)ccc21 | < 10 | 10 | < 10 |
| CN[C@H](C)Cn1ccc2cc(OCc3ccccc3)ccc21 | < 10 | < 10 | < 10 |
